In US8404677B2, “Kinase inhibitors” (Genosco, priority 2009, dated 2013):

Tests used:
truncated human LRRK2 = truncated human LRRK2 (Homo sapiens, UniProt Q5S007); experiment: Inhibition of enzymatic kinase activity (LANCE Ulight); type: biochemical
Experimental: (§1) Inhibition of Enzymatic SYK, ZAP70, PYK2, FAK, PIM1, RET, FLT3, JAK2 and LRRK2 Kinase Activity
(§2) Compounds of the invention were initially diluted to 10 mM in 100% DMSO (CALBIOCHEM™) for storage and made into kinase buffer solution to create a compound concentration ranging from 1 uM and 10 uM. Serial dilutions of compounds of the invention were dispensed into a 96-well plate (GREINER BIOSCIENCES™) at 6 μL each. Purified full-length human SYK, ZAP70, PIM1, PYK2 and truncated human FAK, RET, FLT3, JAK2, and LRRK2 (CARNA BIOSCIENCES™) were diluted in kinase buffer and added to the compound solutions and pre-incubated for 30 minutes at room temperature (1 hour for PYK2). […] The reaction mixture was incubated for 1 hour (2 hours for PYK2). Following the incubation, the stop solution made with EDTA, water, and Lance detection buffer ([…]™) was added (12 μL each) to stop phosphorylation.

[1] = test system: SN4741 cells overexpressing LRRK2 G2019S; experiment: Neuroprotection from LRRK2-mediated dopaminergic cell death (H2O2, crystal violet); type: cell-based, murine; details: for Percent Cell Death: 100 μM hydrogen peroxide
Experimental: (§3) SN4741, a murine dopaminergic cell line were cultured in DMEM containing 10 FBS at 37° C., respectively. SN4741 cells (1.5×10^4/well) were seeded in 48 well plates 1 day before transient transfection with 1 μg of the pcDNA3.1 plasmids of either vector, LRRK wildtype cDNA, LRRK G2019S cDNA, by standard CaCl2 precipitation. Two days after transfection, cells were treated with 100 μM hydrogen peroxide for 1 day and cell viability was measured by crystal violet assay. For compound treatment, the test compounds were added at 0.05 μM, 0.5 μM and 5 μM and the cells were incubated for 1 hour prior to the addition of hydrogen peroxide.
(§4) SN4741 cells were transfected with plasmids containing the LRRK2 wild-type or G2019S and incubated them for 2 days followed by addition of 100 μM of hydrogen peroxide for 24 h to sensitize them to oxidative stress. Cell survival was assessed using the crystal violet.

[2] = test system: SN4741 cells overexpressing LRRK2 wild-type; experiment: as above; type: cell-based, murine; details: for Percent Cell Death: LRRK2 WT, 100 μM hydrogen peroxide
Experimental: as §3, §4

[3] = test system: SN4741 cells transfected with vector; experiment: as above; type: cell-based, murine; details: 100 μM hydrogen peroxide
Experimental: as §3, §4

truncated human FLT3 = molecular target: T1, truncated human FLT3 (Homo sapiens, UniProt P36888); experiment: Inhibition of enzymatic kinase activity (LANCE Ulight); type: biochemical
T1 construct: truncated human FAK, RET, FLT3, JAK2, and LRRK2 (CARNA BIOSCIENCES™); purchased Carna Biosciences
T1 sequence (P36888 564-993 limits assumed): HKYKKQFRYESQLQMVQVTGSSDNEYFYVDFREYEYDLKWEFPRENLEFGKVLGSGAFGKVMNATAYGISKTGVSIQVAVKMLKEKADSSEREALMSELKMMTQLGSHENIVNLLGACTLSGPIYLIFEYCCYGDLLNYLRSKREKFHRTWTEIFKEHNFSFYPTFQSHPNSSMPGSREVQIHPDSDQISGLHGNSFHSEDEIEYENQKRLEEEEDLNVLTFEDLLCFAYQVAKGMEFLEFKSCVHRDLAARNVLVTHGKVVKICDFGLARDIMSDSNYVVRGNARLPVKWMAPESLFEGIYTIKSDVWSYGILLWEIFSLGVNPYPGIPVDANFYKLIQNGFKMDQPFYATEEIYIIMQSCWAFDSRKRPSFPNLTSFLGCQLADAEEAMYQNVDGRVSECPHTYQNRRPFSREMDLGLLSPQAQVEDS
Experimental: as §1, §2

truncated human JAK2 = molecular target: T2, truncated human JAK2 (Homo sapiens, UniProt O60674); experiment: as above; type: biochemical
T2 construct: truncated human FAK, RET, FLT3, JAK2, and LRRK2 (CARNA BIOSCIENCES™); purchased Carna Biosciences
Experimental: as §1, §2

truncated human RET = molecular target: T3, truncated human RET (Homo sapiens, UniProt P07949); experiment: as above; type: biochemical
T3 construct: truncated human FAK, RET, FLT3, JAK2, and LRRK2 (CARNA BIOSCIENCES™); purchased Carna Biosciences
T3 sequence (P07949 658-1114 limits assumed): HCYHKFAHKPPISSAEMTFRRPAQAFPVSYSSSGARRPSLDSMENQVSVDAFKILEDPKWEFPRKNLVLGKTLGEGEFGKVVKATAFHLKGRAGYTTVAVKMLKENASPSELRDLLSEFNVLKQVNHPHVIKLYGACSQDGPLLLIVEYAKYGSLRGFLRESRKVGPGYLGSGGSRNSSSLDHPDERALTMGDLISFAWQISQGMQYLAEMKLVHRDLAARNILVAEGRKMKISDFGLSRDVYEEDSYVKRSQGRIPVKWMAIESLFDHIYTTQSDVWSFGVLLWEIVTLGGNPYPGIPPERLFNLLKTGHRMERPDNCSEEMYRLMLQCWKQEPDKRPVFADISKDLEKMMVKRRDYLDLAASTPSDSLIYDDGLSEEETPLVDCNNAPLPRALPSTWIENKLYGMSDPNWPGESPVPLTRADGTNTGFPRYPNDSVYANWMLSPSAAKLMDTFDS
Experimental: as §1, §2

[4] = test system: HEL cells expressing human JAK2 V617F; experiment: Cell viability assay: JAK2 inhibition; type: cell-based; details: for IC50: Homo sapiens, 72-hour incubation
Experimental: Compounds of the invention were tested for cell viability effect on HEL cells. For cell viability assay, HEL cells expressing human JAK2 V617F were obtained from the American Type Culture Collection (ATCC, Manassas, Va.). This cell line was maintained with an Roswell Park Memorial Institute (RPMI) medium (HyClone™) containing 10 bovine calf serum (BCS; Hyclone™) supplemented iron. The HEL cells were seeded at 2×10^4 cells in 96 well culture plates, and serially diluted compound was then added. After a 72-hour incubation period at 37° C., Cell viability was measured using the ATPLite 1 step assay (Perkin-Elmer™) that is based on the quantification of ATP from viable cells. CellTiter Aqueous assay (Promega™) was also performed in parallel as an orthogonal assay. IC50 values were calculated using nonlinear regression and defined as the concentration needed for a 50 reduction in luminescence or absorbance treated versus untreated control cells (Prism™ Software).

[5] = test system: TNF-α release in THP-1 cells, LPS stimulation; experiment: SYK independent TNF-α release assay (LPS stimulation); type: cell-based, human; details: Homo sapiens; LPS stimulation, At 1 μM, THP-1; read-out: Inhibition of TNF-α Release (percentage inhibition)
Experimental: For SYK independent TNF-α release assay (i.e., via lipopolysaccharide (LPS)-stimulation), THP-1 cells derived from human monocytic cells were obtained from the American Type Culture Collection (ATCC, Manassas, Va.). This cell line was maintained with an RPMI medium (GIBCO™) containing 10 fetal bovine serum (FBS, GIBCO™) and 0.05 mM 2-mercaptoethanol. The THP-1 cells were seeded at 1×10^5 cells/100 μL/well into 96-well culture plates, and treated with lipopolysaccharide (1 μg/ml), and serially diluted compound was then added. After an 18-hour incubation period at 37° C., supernatants were collected for the determination of the TNF-α level by ELISA, and the remaining cells were subjected to an MTT assay to determine the cytotoxic effects of compound.

T2 sequence (O60674 826-1132 limits assumed): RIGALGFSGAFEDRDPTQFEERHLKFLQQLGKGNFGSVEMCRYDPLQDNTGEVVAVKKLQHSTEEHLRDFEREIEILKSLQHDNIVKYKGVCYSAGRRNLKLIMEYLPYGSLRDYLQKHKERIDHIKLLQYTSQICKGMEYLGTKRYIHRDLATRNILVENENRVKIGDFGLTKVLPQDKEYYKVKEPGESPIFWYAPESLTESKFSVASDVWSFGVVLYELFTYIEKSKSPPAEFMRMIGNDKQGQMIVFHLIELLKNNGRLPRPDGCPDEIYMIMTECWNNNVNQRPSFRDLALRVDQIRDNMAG
Sequence of truncated human LRRK2 (Q5S007 1879-2138 limits assumed): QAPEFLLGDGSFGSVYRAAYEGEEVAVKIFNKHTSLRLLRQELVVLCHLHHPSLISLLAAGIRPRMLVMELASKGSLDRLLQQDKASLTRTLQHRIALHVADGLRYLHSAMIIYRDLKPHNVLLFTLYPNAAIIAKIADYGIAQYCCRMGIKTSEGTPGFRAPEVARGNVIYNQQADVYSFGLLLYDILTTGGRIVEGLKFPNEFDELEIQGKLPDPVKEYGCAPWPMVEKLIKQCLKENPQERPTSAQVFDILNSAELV

## O=c1[nH]ccc2nc(N3CCC(O)CC3)nc(Nc3cc(C(F)(F)F)cc(C(F)(F)F)c3)c12 [Compound 102, 4-(3,5-bis(trifluoromethyl)phenylamino)-2-(4-hydroxypiperidin-1-yl)pyrido[4,3-d]pyrimidin-5(6H)-one]
Truncated human LRRK2
  IC50: 325 nM
[1]; 0.05 uM
  Percent Cell Death: 54.9%
[1]; 0.5 uM
  Percent Cell Death: 56.0%
[1]; 5 uM
  Percent Cell Death: 44.0%
[1]; at 0.05 uM and higher, vs vector, DMSO or H2O2 controls
  protective effects against LRRK2-associated cell death: increased protective effects
[2]; 0.05 uM
  Percent Cell Death: 49.9%
[2]; 0.5 uM
  Percent Cell Death: 55.3%
[2]; 5 uM
  Percent Cell Death: 46.5%
[2]; LRRK2 wild-type, at 0.05 uM and higher, vs vector, DMSO or H2O2 controls
  protective effects against LRRK2-associated cell death: increased protective effects
[3]; 0.05 uM
  Percent Cell Death: 50.0%
[3]; 0.5 uM
  Percent Cell Death: 54.4%
[3]; 5 uM
  Percent Cell Death: 50.5%

## O=c1[nH]ccc2nc(N3CCC(CO)CC3)nc(Nc3ccc(N4CCS(=O)(=O)CC4)cc3)c12 [Compound 137]
Truncated human FLT3
  IC50: 12.4 nM
Truncated human JAK2
  IC50: 1.6 nM
Truncated human RET
  IC50: 5.8 nM
[4]
  inhibition level compared with Sorafenib: inhibition level greater than those exhibited by Sorafenib
  IC50: 89 nM

## O=c1[nH]ccc2nc(N3CCC(CO)CC3)nc(Nc3ccc(N4CCOCC4)cc3)c12 [Compound 139, 2-(4-(hydroxymethyl)piperidin-1-yl)-4-(4-morpholinophenylamino)pyrido[4,3-d]pyrimidin-5(6H)-one]
Truncated human FLT3
  IC50: 9.1 nM
Truncated human JAK2
  IC50: 1.6 nM
Truncated human RET
  IC50: 4.1 nM
[4]
  inhibition level compared with Sorafenib: inhibition level greater than those exhibited by Sorafenib
  times higher inhibition in IC50 than Sorafenib: about 10 time
  IC50: 152 nM

## C[C@@H]1C[C@H]2[C@@H]3CCC4=CC(=O)C=C[C@]4(C)[C@@]3(F)[C@@H](O)C[C@]2(C)[C@@]1(O)C(=O)CO [Dexamethasone, reference compound]
[5]
  inhibition at 1 µM: 68.4%
